The test system of one test is anti-DTD CD4+ cell lines. Nature of the test: Proliferation assay (3H-thymidine) with anti-DTD CD4+ cell lines challenged with individual synthetic DTX peptides. Type of test: cell-based, human. As to conditions: seven subjects of different HLA class II haplotype; peptide 10 μg/ml. How it is done:
Propagation of CD4+ cell lines specific for DTD and proliferation assay. PBMC were suspended (1-2×10^6 cell/ml) in TCM containing 10 μg/ml DTD, and cultivated in T25 flasks (Costar, Cambridge, Mass.) for 1 week. The reactive lymphoblasts were isolated on Percoll gradients, expanded in TCM containing T-cell growth factor (TCGF, Lymphocult, Biotest Diagnostic, Dreieich, Germany, at a final concentration of IL-2 of 10 units/ml), and enriched in DTD-specific cells by weekly stimulations with the same amount of DTD plus irradiated (4,000 rads: 1 rad=0.01 Gy) autologous PBMC as APC. The response to DTD and PHA of the T cell lines obtained was tested weekly.
Proliferation assays with CD4+ cell lines for DTD. Proliferation assays were carried out with CD4+ lines, using 2×10^4 cells/well, irradiated autologous PBMC (2×10^5 cells/well) as APC, and the Ags described above for CD4+ enriched PBMC. Basal growth rate (Blank) was determined from triplicate wells containing CD4+ cell lines cultivated without any stimulus. After one day, the cultured cells were pulsed for 16 hours with ^3H-thymidine, collected, and the ^3H-thymidine incorporation measured as described above for CD4+ enriched PBMC.
Sequence segments of DTX recognized by anti-DTD T cell lines. The DTX epitopes recognized by the CD4+ cell lines were identified in proliferation assays using individual synthetic DTX-specific peptides. […] The consistency of the recognition was verified by repeating the test 1-2 weeks later.

The subject of the next test is PBMC. Nature of the test: PBMC of 49 HLA heterogenous subjects challenged with DTX and TTX universal epitope peptides. Type of test: cell-based, human. As to conditions: share of the 49 subjects whose PBMC responded. From the text:
PBMC of 49 randomly selected, HLA heterogenous human subjects were challenged with each of the identified DTX and TTX universal epitope peptides. Generally, the PBMCs of each subject recognized several universal epitopes and all but one recognized at least one of the peptides.

Where no end group is shown, it is not given here.

Consider GVLLPTIPGKLDVNKSKTHI [431-450], for which the “recognition by anti-DTD CD4+ cell lines” value with anti-DTD CD4+ cell lines is “recognized by all seven individuals”. For the same substance, in the test with PBMC, the “positive response (1%)” value was 70%.

As for “Gln-Ser-Ile-Ala-Leu-Ser-Ser-Leu-Met-Val-Ala-Gln-Ala-Ile-Pro-leu-Val-Gly-Glu-Leu [331-350]”, the “recognition by anti-DTD CD4+ cell lines” value with anti-DTD CD4+ cell lines was “recognized by all seven individuals”. For the same substance, in the test on PBMC, the “positive response (1%)” value is 80%.

For PVFAGANYAAWAVNVAQVI [271-290], in the test with anti-DTD CD4+ cell lines, the “recognition by anti-DTD CD4+ cell lines” value is given as “recognized by all seven individuals”. Also, the “positive response (1%)” value in the test with PBMC is recorded as 84%.

With QGESGHDIKITAENTPLPIA [411-430], the “recognition by anti-DTD CD4+ cell lines” value in the test on anti-DTD CD4+ cell lines is on record as “recognized by all seven individuals”. Moreover, the “positive response (1%)” value in the test on PBMC is given as 70%.

Take “TDD: column head of Table 4 beside the TTD sequence segments; presumably tetanus toxoid”: the “positive response (1%)” value in the test with PBMC is 96%.

For the substance VDIGFAAYNFVESIINLFQVV [351-370], in the test on anti-DTD CD4+ cell lines, the “recognition by anti-DTD CD4+ cell lines” value is reported as “recognized by all seven individuals”. Besides, the “positive response (1%)” value in the test on PBMC was 71%.

For the substance VHHNTEEIVAQSIALSSLMV [321-340], the “recognition by anti-DTD CD4+ cell lines” value with anti-DTD CD4+ cell lines was “recognized by all seven individuals”. In addition, the “positive response (1%)” value with PBMC is on record as 76%.

(Values after patent publication US20030224021A1, “Methods of using epitope peptides of human pathogens” (Regents of the University of Minnesota, priority 1998, published 2003).)
